Source: patent US20110124607A1, “COMPOSITION FOR REGULATION CELLULAR SENESCENCE COMPRISING LYSOPHOSPHATIDIC ACID AND INHIBITOR OF ADENYLYL CYCLASE AS ACTIVE INGREDIENTS” (priority 2008, published 2011)
Where two headings read alike, the source gives them in different places.

Experiments:
p21waf1/cip1 = experiment: Immuno-blotting of p21waf1/cip1; type: cell-based, human; details: for p21 expression after suppressing PKA: senescent cells pre-treated with 10 mM PKA inhibitor Rp-cAMP for one hour; for p21 expression (immuno-blotting): senescent cells, 30 μM LPA, 300 μM ACI, 10 mM AMPKI, 10 mM AICAR
Protocol: (A) and (B): Young and senescent cells were serum-starved for 2 days, followed by treatment with 10 mM of AMPK inhibitor […]) or 10 mM of AMPK activator AICAR(B) for 4 days. Proteins were extracted from the treated cells and the levels of AMPKα and p-Thr172-AMPKα, total p53, p-Ser15-p53 and […] measured by immuno-blotting. (C) and (D): Young cells (C) and senescent cells (D) were treated with 10 mM AMPKI or 10 mM AICAR and cultured for 4 days, followed by measurement of cell proliferation by cell counting. At this time, the experiment was repeated three times (p<0.001). (A) and (B) are photographs illustrating the results of immuno-blotting. Precisely, sub-cultured young cells (PD 18: A) and senescent cells (PD 64: B) were treated with 30 μM of LPA […] and ACI singly or together, followed by further culture for 1, 2, and 4 days. Proteins were extracted from the cultured cells and the levels of AMPKα, […] β-actin were quantified by immuno-blotting. (A) and (B) are photographs illustrating the results of immuno-blotting. Precisely, senescent cells (PD 64) were pre-treated with 10 mM of PKA inhibitor Rp-cAMP for one hour, followed by treatment with LPA(A) or ACI(B). After culturing the cells for 1, 2, and 4 days, proteins were extracted from the cultured cells and the levels of AMPKα, […] β-actin were quantified by immuno-blotting using 45 μg of the protein. To analyse protein expression, human fibroblasts were lysed in cold lysis buffer (25 mM Hepes, pH 8.0, 150 mM NaCl, 1 mM EDTA, 1 mM Na3VO4, 1 mM NaF, 1% Triton X-100 and protease inhibitors), followed by centrifugation at 4° C. at 9,000 rpm for 10 minutes to obtain supernatant. Protein in the extract was quantified […]. SDS-PAGE electrophoresis was performed with equal amount of the protein (45 μg) to separate. The separated protein was transferred onto NC membrane from the electrophoresis gel. Non-specific protein binding was blocked by blocking the blot (transferred NC membrane) using TTBS […] containing 5% skim milk for one hour. Then, antigen-antibody reaction was induced with diluted primary antibody at 4° C. for overnight. The blot was washed with TTBS, followed by reaction with horseradish peroxidase conjugated anti-IgGs diluted in TTBS containing 5% skim milk (1:5000) at room temperature for one hour. The blot was washed again with TTBS to eliminate non-specific binding of antigen-antibody. Photographs were developed/printed on X-ray film (Kodak) using ECL kit (Pierce) containing peroxidase substrate to identify each protein.

PKA = PKA activity in cells; type: cell-based, human
[1] = test system: senescent cells (human fibroblasts); experiment: Microscope observation of morphology of senescent cells; type: cell-based; details: day 4
Protocol: In the meantime, when senescent cells were treated with ACI, p21 expression was reduced on day 2 and day 4. […] Microscope observation also confirmed that young cell like cells were increased compared with the control (untreated senescent cells are bigger in size, so that less cells can be observed under microscope, compared with treated senescent cells). […] So was cyclin D1 expression (FIG. 3B). […] Thus, when senescent cells were treated with ACI, p21 and cyclin D1 expressions were reduced and thereby DNA synthesis in senescent cell increased to induce cell proliferation.

cyclin D1 = experiment: Immunofluorescent staining of cyclin D1; type: cell-based, human; details: 30 μM LPA
Protocol: FIG. 3 is a set of photographs illustrating the effect of LPA and ACI on the expressions of p21 and cyclin-D1 in young and senescent cells. Particularly, a-f, g-l and m-r are photographs illustrating that sub-cultured young cells (PD 20: Y) and senescent cells (PD 65: S) were serum-starved for 48 hours respectively, followed by treatment of LPA (a-f) and ACI (g-l) singly or together (m-r), and after culturing for 1, 2, and 4 days, the cells were fixed in 4% hydrogen peroxide, and stained with p21waf1/cip1 (A) and cyclin D1 (B) antibodies, followed by confirming immunofluorescence. At this time, nucleus was stained with DAPI.
Coverslips were placed on 24 well plate on which required amounts of young and senescent cells were distributed. Media were eliminated and the treated cells were washed with PBS twice. Then, the cells were fixed with 4% hydrogen peroxide. Non-specific protein staining was blocked using PBS containing 2% BSA (blocking serum). The cells were stained with primary antibody such as anti-AMPKα, anti-p-Thr172-AMPKα, anti-p-Ser485/491-AMPKα, anti-p53, anti-p-Ser15-p53, anti-p21waf1/cip1, and anti-cyclin D1. To stain nucleus, DAPI (1:1000) was also added, followed by observation under Zeiss LSM 510 laser scanning microscope. […]

[2] = test system: young cells (human fibroblasts); experiment: Cell cycle analysis by flow cytometry (S phase entry), young cells; type: cell-based; details: 30 μM LPA
Protocol: At this time, cell numbers regarded as significant compared with that of the control were presented in (A) and (B) (p<0.001). Cell cycle in (C) was analysed by flow cytometry. The percentage of cells entered S phase was averaged of three repeated measurements (p<0.001). Young and senescent cells were treated with 30 μM of LPA, 300 μM of ACI, LPA+ACI, 10 mM of AMPKI or 10 mM of AICAR, followed by culture for 1, 2, and 4 days. To analyze cell cycle, the cells were washed with buffer twice and then the cells were centrifuged using 0.25% trypsin, followed by fixation in cold 70% ethanol. Analysis was performed by flow cytometry (Becton Dickinson FACSorter) using […] of PI containing RNase. Cell proliferation and cAMP level were increased by LPA in senescent cells (Yeo et al., 2002). The AC inhibitor (ACI) was added to reduce cAMP which had been increased by LPA. And then, cell proliferation was investigated. Cells were cultured in serum-free medium for 2 days to arrest them in G0/G1 phase. Then, the cells were treated with LPA, ACI or LPA+ACI. Total cell number was measured on day 1, day 2 and day 4, or the cells entered into S phase were counted to evaluate cell proliferation. When young cells were treated with 300 μM of ACI, cell proliferation was reduced, compared with control (FIG. 1A). […]

cAMP = details: cited from earlier work

Nc1ncnc2c1ncn2C1CCCO1 (stereo not drawn) [ACI, 9-(tetrahydro-2′-furyl)adenine]
p21 expression after suppressing PKA (p21waf1/cip1): not changed | p21 expression (immuno-blotting) (p21waf1/cip1): reduced | PKA activity (PKA; senescent cells): completely inhibited | PKA activity (PKA; young cells): completely inhibited | change of senescent cells into young cell like cells [1]: most cells were changed into young cell like cells | cyclin D1 expression (immunofluorescence) (cyclin D1; senescent cells, 300 μM ACI): reduced

lysophosphatidic acid [LPA]
p21 expression after suppressing PKA (p21waf1/cip1): not changed at all | p21 expression (immuno-blotting) (p21waf1/cip1): reduced | S phase entry [2]: promotion of S phase entry | cyclin D1 expression (immunofluorescence) (cyclin D1; young cells): decrease | cAMP level (cAMP; senescent cells (Yeo et al., 2002)): increased | cAMP level (cAMP; young cells (Jang et al., 2006b)): down-regulated
